Experimental data: patent US20170162898A1, “Quaternary Ammonium Halides With Ether Functional Groups For Use As Battery Electrolytes” (Albemarle Corporation, priority 2014, published 2017)
Where “and” joins values, the source holds several entries; their conditions need not be identical. Identical values can stand only once.

Test: Measurement of free bromine in aqueous phase
Assay type: physicochemical
Conditions: 0.7 M quat (composition A: 0.5 moles zinc bromide, 2.0 moles bromine), stirred 24 hrs, top aqueous phase, wt %
Description: The forward operation of a bromine-containing battery generally involves the conversion of elemental bromine to ionic bromine. The quat/Br2 complex results from an equilibrium reaction in which the Br2 is released from the complex as the concentration of free Br2 in the aqueous electrolyte drops during battery operation. In its fully charged state, the electrolyte solution inevitably contains some degree of uncomplexed bromine. A measure of a quat's ability to complex elemental bromine is the amount of elemental bromine left in solution when the complexation reaction proceeds to equilibrium. Such bromine is referred to as “free bromine.” Measurement of free bromine in aqueous phase is set forth in Example 1.
Two slightly different methods were used to prepare the electrolyte compositions, A) one containing 0.7M quat and B) the other containing 0.8M quat. In composition A, 2.0 moles of bromine was added to an aqueous solution containing 0.5 moles of zinc bromide and 0.7 moles of the quat. The two-phase mixture was stirred for 24 hrs. and then the phases were allowed to settle. The top aqueous phase was sampled for free bromine measurement. In composition B, 1.44 moles of bromine was added to an aqueous solution containing 0.5 moles of zinc bromide, 0.4 moles of zinc chloride and 0.8 moles of the quat. The top aqueous phase obtained after stirring for 24 hrs. was used for free bromine measurement.
A 250-ml Erlenmeyer flask was charged with 50 ml of deionized water and weighed (A). A sample of the clear aqueous phase was passed through glass wool to remove any suspended organic phase and then added to the Erlenmeyer flask. The flask was weighed again (B) and the difference in weight (B-A) was noted as the weight of the sample. About 20 ml of 20% potassium iodide solution followed by about 5 ml of starch solution was added to the flask. The resulting dark mixture was titrated against 0.02N sodium thiosulfate solution. The end-point was the disappearance of purple color. Free bromine (wt %) was calculated in the following manner:
Wt % free Br2=Volume (ml) of sodium Thiosulfate×Normality of Sodium thisosulfate/Sample Weight.

| Structure (SMILES) | Free Br2 |
| --- | --- |
| CCC[N+](CC)(CC)CC.[Br-] [Compound 5, triethylpropylammonium bromide] | 0.089% and 0.7 M 0.089% |
| CC[N+](C)(C)CCCC[N+](C)(C)CC.[Br-].[Br-] [Compound 15, Dimethylethyl Gemini Quat Bromide with Butyl Linkage] | 0.59% and 0.7 M 0.59% |
| CC[N+](CC)(CC)CCOC.[Br-] [Compound 2, (2-methoxyethyl)-triethylammonium bromide] | 0.658% and 0.7 M 0.658% |
| CC[N+](C)(CC)CCOC.[Br-] [Compound 4, diethylmethyl-(2-methoxyethyl)ammonium bromide] | 0.7 M 0.70% |
| CCCC[N+](C)(C)CCOC.[Br-] [Compound 1, Dimethylbutylether Quat Bromide] | 0.7 M 0.28% |
| CC[N+](C)(C)CCOCC[N+](C)(C)CC.[Br-].[Br-] [Compound 14, Dimethylethyl Gemini Quat Bromide with Diethylether Linkage] | 0.71% and 0.7 M 0.71% |

Same assay, conditions: 0.8 M quat (composition B: 0.5 moles zinc bromide, 0.4 moles zinc chloride, 1.44 moles bromine), stirred 24 hrs, top aqueous phase, wt %

| Structure (SMILES) | Free Br2 |
| --- | --- |
| CC[N+](CC)(CC)CCOC.[Br-] [Compound 2, (2-methoxyethyl)-triethylammonium bromide] | 0.467% and 0.8 M 0.467% |
| CC[N+]1(CC)CCCCC1.[Br-] [Compound 9, Diethyl Piperidinium Bromide] | 0.26% and 0.8 M 0.26% |
| CCC[N+]1(CC)CCCCC1 [Compound 10, EthyPropyl Piperidinium Bromide] | 0.026% and 0.8 M 0.026% |

Test: Free bromine in electrolyte with chloroquat or bromoquat (Example 8)
Assay type: physicochemical
Conditions: 0.84 M zinc bromide, 0.8 M quat, 1.44 M bromine; stirred for 24 hrs at 35° C.
Procedure: Chloride ions are added to the electrolyte in amounts sufficient to reduce the amount of free bromine present and increase the electrolyte conductivity during charging of the cell. Chloride ions in the electrolyte may come from zinc chloride or quaternary ammonium chloride complexing agent.
Experiment 1 of Example 8: An aqueous electrolyte system was prepared having 0.84 M zinc bromide, 0.8 NI chloroquat (N-methyl, N-butyl pyrrolidinium chloride) and 1.44 M bromine. After the sample was stirred for 24 hrs at 35° C., the amount of free bromine present in the electrolyte was 0.26%.
Experiment 2 of Example 8: An aqueous electrolyte system was prepared having 0.84 M zinc bromide, 0.8 M bromoquat (N-methyl, N-butyl pyrrolidinium bromide) and 1.44 NI bromine. After the sample was stirred for 24 hrs at 35° C., the amount of free bromine present in the electrolyte was 0.25%.

| Structure (SMILES) | amount of free bromine present in the electrolyte [%] |
| --- | --- |
| CCCC[N+]1(C)CCCC1.[Br-] [bromoquat, N-methyl, N-butyl pyrrolidinium bromide] | 0.25 |
| CCCC[N+]1(C)CCCC1.[Cl-] [chloroquat, N-methyl, N-butyl pyrrolidinium chloride] | 0.26 |

Test: Cloud point determination (solubility in ZnBr2 solution)
Conditions: 0.7 M quat in 2.5M Zinc Bromide water solution
Procedure: By “cloud point” is meant the cloud point of an aqueous solution containing 0.7 M complexing agent and 2.5 M zinc bromide.
A 0.7M quaternary ammonium bromide in 2.5M Zinc Bromide water solution was prepared. • 2. The solution was transferred to a jacketed flask with a stirring bar and temperature monitor. • 3. The solution was warmed to 15° C. above the expected cloud point. If necessary, any moisture or impurities were removed by filtration. • 4. The solution was stirred, with speed adjustment to about 250 rpm, while avoiding the formation of bubbles. • 5. The solution was cooled gradually (cooling rate of about 1° C./5 min). • 6. The sample was inspected carefully for signs of cloudiness, and the temperature at which cloudiness was observed was recorded to the nearest 0.1° C.

| Structure (SMILES) | Solubility in ZnBr2 Cloud Point |
| --- | --- |
| CCC[N+](CC)(CC)CC.[Br-] [Compound 5, triethylpropylammonium bromide] | 0.7 M, 41.2 C. |
| CC[N+](C)(C)CCCC[N+](C)(C)CC.[Br-].[Br-] [Compound 15, Dimethylethyl Gemini Quat Bromide with Butyl Linkage] | 0.7 M, 89.2 C. |
| CC[N+]1(CC)CCCCC1.[Br-] [Compound 9, Diethyl Piperidinium Bromide] | 0.7 M, 11.9 C. |
| CCCC[N+](C)(C)CCOC.[Br-] [Compound 1, Dimethylbutylether Quat Bromide] | 0.7 M, 29 C. |
| CCC[N+]1(CC)CCCCC1 [Compound 10, EthyPropyl Piperidinium Bromide] | 0.7 M, 45.8 C. |
| CC[N+](C)(C)CCOCC[N+](C)(C)CC.[Br-].[Br-] [Compound 14, Dimethylethyl Gemini Quat Bromide with Diethylether Linkage] | 0.7 M, 48.2 C. |

Same assay, conditions: solution 0.7M in DMEP and 2.5M in ZnBr2

| Structure (SMILES) | cloud point |
| --- | --- |
| CCC[N+](C)(C)CC.[Br-] [DMEP, dimethylethylpropyl ammonium bromide, reference compound] | about 23.2 °C |
